Measured values: patent US4241053A, “Novel nitrosourea compounds and process for preparing the same” (Tanabe Seiyaku Co., Ltd., priority 1978, dated 1980)

Assays:
[1] = Preventive effect against the growth of Ehrlich ascites tumor (Method A); format: in vivo, mice (female ICR); conditions: mouse, in vivo, ip; maximum dose with 100% inhibition of Ehrlich ascites tumor without causing death; unit from dose column; read-out: MTD (Maximum Tolerated Dose)
Method: (§1) (A) Preventive effect against the growth of Ehrlich ascites tumor:
(§2) 10^6 tumor cells of Ehrlich ascites carcinoma were inoculated intraperitoneally into a group of five femal mice (ICR mice, body weight: 19-23 g). A test compound was dissolved in a physiological saline solution [In the case where CCNU was employed as the test compound, said compound was suspended in a physiological saline solution containing 0.1% NIKKOL HCO-60 (trademark; a surface active agent manufactured by Nikko Chemicals Co. Ltd.)] and administered intraperioneally to the mice. The administration of the test compound was begun 24 hours after the inoculation of the tumor cells and performed once a day for 5 days. The volume of ascites in the treated mice were measured after 7 days of the experiment.
(§3) ^a T = the average volume of ascites in the treated mice
(§4) C = the average volume of ascites in the untreated mice (control group of
(§5) 100% inhibition for the growth of Ehrlich ascites tumor in mice without
(§6) causing the death of said mice)
(§7) 100% inhibition for the growth of said ascites tumor)
(§8) ^e Therapeutic index = MTD/MED
(§9) *the number of mice died/the number of mice used

[2] = system: Ehrlich ascites carcinoma; test: as above; format: in vivo, mice (female ICR); conditions: for therapeutic index (M.T.D./M.E.D.) relative to that of GANU: Ehrlich ascites tumor, greater than that of GANU; for inhibition in vivo at 0.19 mg/kg: 0.19 mg/kg/day i.p.; for inhibition in vivo at 0.39 mg/kg: 0.39 mg/kg/day i.p.; for inhibition in vivo at 0.78 mg/kg: 0.78 mg/kg/day i.p.; for inhibition in vivo at 1.56 mg/kg: 1.56 mg/kg/day i.p.; for inhibition in vivo at 6.25 mg/kg: 6.25 mg/kg/day i.p.; for inhibition in vivo at 25 mg/kg: 25 mg/kg/day i.p.; for minimal effective dose: minimum dose with 100% inhibition of ascites tumor, unit from dose column, read-out: MED (Minimum Effective Dose); for inhibition in vivo at 3.12 mg/kg: 3.12 mg/kg/day i.p.; for inhibition in vivo at 12.5 mg/kg: 12.5 mg/kg/day i.p.
Method: as §1, §2, §3, §4, §5, §6, §7, §8, §9

Leukemia L-1210 = test: Effect on the life span of mice implanted with leukemic cells of L-1210 (Method B); format: in vivo, mice (male BDF1); conditions: Mus musculus, L1210, ip, once a day for 5 days; for ILS at 12.5 mg/kg / responders at 12.5 mg/kg: 12.5 mg/kg/day i.p.; for ILS at 25 mg/kg / responders at 25 mg/kg: 25 mg/kg/day i.p.; for ILS at 50 mg/kg / responders at 50 mg/kg: 50 mg/kg/day i.p.
Method: (B) Effect on the life span of mice implanted with leukemic cells of L-1210:
10^5 leukemic cells of L-1210 were inoculated intraperitoneally into a group of four or six male mice (BDF1 mice, body weight: 19-23 g). A test compound was dissolved in a physiological saline solution and administered intraperitoneally to the mice. The administration of the test compound was begun 24 hours after the inoculation of the leukemic cells and performed once a day for 5 days. The survival days of the treated mice were observed.
^a T = the mean survival days of the treated mice
C = the mean survival days of the untreated mice (control group of mice)
^b ILS(Increase in Life Span) =-
^c 60day survivors = the number of mice survived for 60 days/the

[3] = 200 mg/kg/day i.p., once a day for 5 days
[4] = Mus musculus, Ehrlich, ip, 168 h, once a day for 5 days, read-out: Inhibition ratio
[5] = Mus musculus, Ehrlich, ip, 168 h, 100 mg/kg/day i.p., once a day for 5 days, read-out: Inhibition ratio
[6] = Mus musculus, Ehrlich, ip, 168 h
[7] = 120 h, read-out: ILS (Increase in Life Span)
[8] = 1440 h, read-out: 60-day survivors (mice survived for 60 days/mice used) (converted)
[9] = 400 mg/kg/day i.p., once a day for 5 days
[10] = Mus musculus, Ehrlich, ip, 168 h, 50 mg/kg/day i.p., once a day for 5 days, read-out: Inhibition ratio
[11] = Mus musculus, Ehrlich, ip, 168 h, 200 mg/kg/day i.p., once a day for 5 days, read-out: Inhibition ratio

Row | Compound | MTD at 168 h [1] [mg/kg/day] | Therapeutic index (MTD/MED) [2] | inhibition in vivo at 0.39 mg/kg [2, 4] [%] | inhibition in vivo at 0.78 mg/kg [2, 4] [%] | inhibition in vivo at 1.56 mg/kg [2, 4] [%] | inhibition in vivo at 6.25 mg/kg [2, 4] [%] | inhibition in vivo at 25 mg/kg [2, 4] [%] | inhibition in vivo at 100 mg/kg [2, 5] [%] | minimal effective dose [2, 6] [mg/kg/day] | ILS at 25 mg/kg (Leukemia L-1210; [7]) [%] | ILS at 50 mg/kg (Leukemia L-1210; [7]) [%] | responders at 25 mg/kg (Leukemia L-1210; [8]) [%] | responders at 50 mg/kg (Leukemia L-1210; [8]) [%] | inhibition in vivo at 3.12 mg/kg [2, 4] [%] | inhibition in vivo at 12.5 mg/kg [2, 4] [%] | inhibition in vivo at 50 mg/kg [2, 10] [%] | other results
1 | COCCCN(C(=O)N(CCCl)N=O)C1OC[C@@H](O)[C@@H](O)[C@@H]1O (stereo partly drawn) [Compound 7, 1-(2-chloroethyl)-1-nitroso-3-(3-methoxy-n-propyl)-3-(D-arabinopyranosyl)urea] | 100 | 128 | 73.2 | 100 | 100 | 100 | 100 | 100 | 0.78 | > 641 | > 641 | 100 | 100 |  |  |  | Toxic (number of mice died/number of mice used) [2, 3]: 5/5; therapeutic index (M.T.D./M.E.D.) relative to that of GANU [2]: 4 times; inhibition in vivo at 0.19 mg/kg [2, 4]: 23.2%; ILS at 3.12 mg/kg (Leukemia L-1210; 120 h, 3.12 mg/kg/day i.p., read-out: ILS (Increase in Life Span)): 66.7%; ILS at 12.5 mg/kg (Leukemia L-1210; [7]): > 215%; responders at 3.12 mg/kg (Leukemia L-1210; 1440 h, 3.12 mg/kg/day i.p., read-out: 60-day survivors (mice survived for 60 days/mice used)): 0%; responders at 12.5 mg/kg (Leukemia L-1210; [8]): 25%
2 | COCC(C)N(C(=O)N(CCCl)N=O)C1O[C@H](CO)[C@@H](O[C@H]2O[C@H](CO)[C@@H](O)[C@H](O)[C@H]2O)[C@H](O)[C@H]1O (stereo partly drawn) [Compound 2, 1-(2-chloroethyl)-1-nitroso-3-(1-methyl-2-methoxy-ethyl)-3-[O-α-D-glucopyranosyl-(1→4)-D-glucopyranosyl]urea] | 200 | 128 |  | -8.6 | 100 |  |  |  | 1.56 | > 604 | > 757 | 75 | 100 | 100 | 100 | 100 | Toxic (number of mice died/number of mice used) [2, 9]: 2/5; therapeutic index (M.T.D./M.E.D.) relative to that of GANU [2]: 4 times; inhibition in vivo at 200 mg/kg [2, 11]: 100%; ILS at 6.25 mg/kg (Leukemia L-1210; 120 h, 6.25 mg/kg/day i.p., read-out: ILS (Increase in Life Span)): 85.7%; ILS at 100 mg/kg (Leukemia L-1210; 120 h, 100 mg/kg/day i.p., read-out: ILS (Increase in Life Span)): > 757%; responders at 6.25 mg/kg (Leukemia L-1210; 1440 h, 6.25 mg/kg/day i.p., read-out: 60-day survivors (mice survived for 60 days/mice used) (converted)): 0%; responders at 100 mg/kg (Leukemia L-1210; 1440 h, 100 mg/kg/day i.p., read-out: 60-day survivors (mice survived for 60 days/mice used) (converted)): 100%
3 | COCC(C)N(C(=O)N(CCCl)N=O)C1O[C@H](CO)[C@H](O)[C@H](O)[C@H]1O (stereo partly drawn) [Compound 8, 1-(2-chloroethyl)-1-nitroso-3-(1-methyl-2-methoxy-ethyl)-3-(D-galactopyranosyl)urea] | 100 | 64 | 18.4 | 65.8 | 100 | 100 | 100 | 100 | 1.56 | > 496 | > 722 | 50 | 100 |  |  |  | Toxic (number of mice died/number of mice used) [2, 3]: 5/5; ILS at 12.5 mg/kg (Leukemia L-1210; [7]): 158%; responders at 12.5 mg/kg (Leukemia L-1210; [8]): 0%
4 | COC(C)CN(C(=O)N(CCCl)N=O)C1O[C@H](CO)[C@@H](O[C@H]2O[C@H](CO)[C@@H](O)[C@H](O)[C@H]2O)[C@H](O)[C@H]1O (stereo partly drawn) [Compound 1, 1-(2-chloroethyl)-1-nitroso-3-(2-methoxy-n-propyl)-3-[O-α-D-glucopyranosyl-(1→4)-D-glucopyranosyl]urea] | 200 | 64 |  |  | 4.4 |  |  |  | 3.12 |  |  |  |  | 100 | 100 | 100 | Toxic (number of mice died/number of mice used) [2, 9]: 4/5; inhibition in vivo at 200 mg/kg [2, 11]: 100%
5 | COCCN(C(=O)N(CCCl)N=O)C1O[C@H](CO)[C@@H](O)[C@H](O)[C@@H]1O (stereo partly drawn) [Compound 11, 1-(2-chloroethyl)-1-nitroso-3-(2-methoxyethyl)-3-(D-mannopyranosyl)urea] | 400 | 64 |  |  | 14 | 100 | 100 | 100 | 6.25 |  |  |  |  | 64 |  |  | Toxic (number of mice died/number of mice used) ([2]; 800 mg/kg/day i.p., once a day for 5 days): 5/5; inhibition in vivo at 400 mg/kg ([2]; Mus musculus, Ehrlich, ip, 168 h, 400 mg/kg/day i.p., once a day for 5 days, read-out: Inhibition ratio): 100%
6 | COCCN(C(=O)N(CCCl)N=O)C1OC[C@@H](O)[C@H](O)[C@H]1O (stereo partly drawn) [Compound 10, 1-(2-chloroethyl)-1-nitroso-3-(2-methoxyethyl)-3-(D-xylopyranosyl)urea] | 25 | 64 | 100 |  | 100 |  | 100 |  | 0.39 |  |  |  |  |  |  |  | Toxic (number of mice died/number of mice used) ([2]; 50 mg/kg/day i.p., once a day for 5 days): 2/5; inhibition in vivo at 0.04 mg/kg ([2]; Mus musculus, Ehrlich, ip, 168 h, 0.04 mg/kg/day i.p., once a day for 5 days, read-out: Inhibition ratio): 2.1%; inhibition in vivo at 0.09 mg/kg ([2]; Mus musculus, Ehrlich, ip, 168 h, 0.09 mg/kg/day i.p., once a day for 5 days, read-out: Inhibition ratio): 25%; inhibition in vivo at 0.19 mg/kg [2, 4]: 89.6%; inhibition in vivo at 6.23 mg/kg ([2]; Mus musculus, Ehrlich, ip, 168 h, 6.23 mg/kg/day i.p., once a day for 5 days, read-out: Inhibition ratio): 100%
7 | O=NN(CCCl)C(=O)NC1CCCCC1 [CCNU, 1-(2-chloroethyl)-1-nitroso-3-cyclohexylurea, reference compound] | 50 |  |  |  |  | 33.3 |  |  |  |  |  |  |  | 21.1 | 100 | 100 | Toxic (number of mice died/number of mice used) ([2]; 100 mg/kg/day i.p., once a day for 5 days): 5/5
